Molecular target: T1, HCV NS3 protease domain (Hepatitis C virus genotype 1b, UniProt Q9WMX2)
T1 construct: The first 181 amino acids of NS3 (residues 1027-1207 of the viral polyprotein); hexa-histidine (C); made in house; host or cells: E. coli BL21/DE3 pLysS
Assay: biochemical
Details: Enzyme Assay 1 (HCV NS3 Protease Domain Peptide Cleavage Assay) activity, apparent Ki class

T1 sequence (Q9WMX2 1027-1207, other chains not shown): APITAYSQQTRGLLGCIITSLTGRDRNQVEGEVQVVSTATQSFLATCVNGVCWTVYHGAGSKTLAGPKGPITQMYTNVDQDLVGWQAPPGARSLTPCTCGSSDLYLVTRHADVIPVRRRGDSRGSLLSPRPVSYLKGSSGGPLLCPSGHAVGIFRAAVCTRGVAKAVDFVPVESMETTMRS

Question: Which Ki does the source give for `CCC[C@H](NC(=O)[C@@H]1C[C@]2(CC(c3cccc(OC)c3)=NO2)CN1C(=O)[C@@H](NC(=O)CC1CCOCC1)C(C)(C)C)C(=O)C(=O)NC1CC1` [Compound 525] here?
Answer: > 0.5 µM

Question: Which Ki does the source give for `CCC[C@H](NC(=O)[C@@H]1C[C@]2(CC(c3ccccc3)=NO2)CN1C(=O)[C@@H](NC(=O)NCC)C(C)(C)C)C(=O)C(=O)NC1CC1` [Compound 580] here?
Answer: 0.1 to 0.5 µM

Question: `CCC[C@H](NC(=O)[C@@H]1C[C@]2(CC(c3cc(F)cc(F)c3)=NO2)CN1C(=O)[C@@H](NC(=O)O[C@H]1CCOC1)C(C)(C)C)C(=O)C(=O)NC1CC1` [Compound 106] was tested. Which Ki did it give?
Answer: > 0.5 µM

Question: For `CCC[C@H](NC(=O)[C@@H]1C[C@]2(CC(c3cccc(Cl)c3)=NO2)CN1C(=O)[C@@H](NC(=O)CC1CCCCC1)C(C)(C)C)C(=O)C(N)=O` [Compound 273], which Ki is on record?
Answer: 0.1 to 0.5 µM

Question: How did the Ki turn out when `CC(C)C[C@H](NC(=O)[C@@H]1C[C@]2(CC(c3cccc(Cl)c3)=NO2)CN1C(=O)[C@@H](NC(=O)CC1CCCCC1)C(C)(C)C)C(=O)C(=O)NC1CC1` [Compound 579] was run?
Answer: 0.1 to 0.5 µM

Question: `CCC[C@H](NC(=O)[C@@H]1C[C@@]2(CC(c3ccccc3)=NO2)CN1C(=O)[C@@H](NC(=O)[C@@H](NC(=O)c1cnccn1)C1CCCCC1)C(C)(C)C)C(=O)C(=O)NC1CC1` [Compound 428] was tested. Which Ki did it give?
Answer: 0.1 to 0.5 µM

Question: For `CCC[C@H](NC(=O)[C@@H]1C[C@]2(CC(c3cccc(Cl)c3)=NO2)CN1C(=O)[C@@H](NC(=O)C1(O)CCCC1)C(C)(C)C)C(=O)C(=O)NC1CC1` [Compound 20], which Ki is on record?
Answer: > 0.5 µM

Question: `CCC[C@H](NC(=O)[C@@H]1C[C@]2(CC(c3cccc(Cl)c3)=NO2)CN1C(=O)[C@@H](NC(=O)OC(C)C)C(C)(C)C)C(=O)C(=O)NC1CC1` [Compound 193] was tested. Which Ki did it give?
Answer: 0.1 to 0.5 µM

Question: Which Ki does the source give for `CCC[C@H](NC(=O)[C@@H]1C[C@]2(CC(c3cccc(Cl)c3)=NO2)CN1C(=O)[C@@H](NC(=O)CC1=CCCCC1)C(C)(C)C)C(=O)C(=O)NC1CC1` [Compound 245] here?
Answer: 0.1 to 0.5 µM

Question: `CCCC1=NO[C@]2(C1)C[C@@H](C(=O)N[C@@H](CCC)C(=O)C(=O)NC1CC1)N(C(=O)[C@@H](NC(=O)[C@@H](NC(=O)c1cnccn1)C1CCCCC1)C(C)(C)C)C2` [Compound 400] was tested. Which Ki did it give?
Answer: < 0.1 µM

Question: `CCC[C@H](NC(=O)[C@@H]1C[C@]2(CC(c3cccc(Cl)c3)=NO2)CN1C(=O)[C@@H](NC(=O)[C@H](OC)c1ccccc1)C(C)(C)C)C(=O)C(=O)NC1CC1` [Compound 187] was tested. Which Ki did it give?
Answer: > 0.5 µM

Question: For `CCC[C@H](NC(=O)[C@@H]1C[C@]2(CC(c3ccc4c(c3)OCCO4)=NO2)CN1C(=O)[C@@H](NC(=O)O[C@H]1CCOC1)C(C)(C)C)C(=O)C(=O)NC1CC1` [Compound 456], which Ki is on record?
Answer: 0.1 to 0.5 µM

Question: With `CCC[C@H](NC(=O)[C@@H]1C[C@]2(CC(c3cccc(Cl)c3)=NO2)CN1C(=O)[C@@H](NC(=O)Oc1ccc2c(c1)OCO2)C(C)(C)C)C(=O)C(=O)NC1CC1` [Compound 197] as the compound, how does the Ki read?
Answer: 0.1 to 0.5 µM

Question: For `CCC[C@H](NC(=O)[C@@H]1C[C@]2(CC(c3ccc(F)c(Cl)c3)=NO2)CN1C(=O)[C@@H](NC(=O)O[C@H]1CCOC1)C(C)(C)C)C(=O)C(=O)NC1CC1` [Compound 301], which Ki is on record?
Answer: 0.1 to 0.5 µM

Question: For `CCC[C@H](NC(=O)[C@@H]1C[C@]2(CC(c3cccc(Cl)c3)=NO2)CN1C(=O)[C@@H](NC(=O)CC1CCOCC1)C1CCCCC1)C(=O)C(=O)NC1CC1` [Compound 37], which Ki is on record?
Answer: > 0.5 µM

Question: `CCC[C@H](NC(=O)[C@@H]1C[C@]2(CC(c3cccc(Cl)c3)=NO2)CN1C(=O)[C@@H](NC(=O)OCc1cccc(C)c1)C(C)(C)C)C(=O)C(=O)NC1CC1` [Compound 174] was tested. Which Ki did it give?
Answer: 0.1 to 0.5 µM

Question: For `CCC[C@H](NC(=O)[C@@H]1C[C@]2(CC(c3cccc(Cl)c3)=NO2)CN1C(=O)[C@@H](NC(=O)Cc1sc(C)nc1C)C(C)(C)C)C(=O)C(=O)NC1CC1` [Compound 75], which Ki is on record?
Answer: 0.1 to 0.5 µM

Question: For `CCC[C@H](NC(=O)[C@@H]1C[C@]2(CC(c3ccc(F)cc3)=NO2)CN1C(=O)[C@@H](NC(=O)[C@@H](NC(=O)c1cnccn1)C(C)(C)C)C(C)(C)C)C(=O)C(=O)NC1CC1` [Compound 417], which Ki is on record?
Answer: < 0.1 µM

Question: For `CCC[C@H](NC(=O)[C@@H]1C[C@]2(CC(c3cccc(Cl)c3)=NO2)CN1C(=O)[C@H](Cc1ccccc1)NC(=O)OCC)C(=O)C(=O)NC1CC1` [Compound 427], which Ki is on record?
Answer: > 0.5 µM

Question: `CCC[C@H](NC(=O)[C@@H]1C[C@]2(CC(c3ccccc3Oc3ccc(OC)cc3)=NO2)CN1C(=O)[C@@H](NC(=O)OCc1ccccc1)C(C)(C)C)C(=O)C(=O)NC1CC1` [Compound 278] was tested. Which Ki did it give?
Answer: > 0.5 µM

Question: For `CCC[C@H](NC(=O)[C@@H]1C[C@]2(CC(c3cccc(Cl)c3)=NO2)CN1C(=O)[C@@H](NC(=O)OCCCc1ccccn1)C(C)(C)C)C(=O)C(=O)NC1CC1` [Compound 373], which Ki is on record?
Answer: 0.1 to 0.5 µM

Question: With `CCC[C@H](NC(=O)[C@@H]1C[C@]2(CC(c3cccc(Cl)c3)=NO2)CN1C(=O)[C@@H](NC(=O)CC1CCCC1)C(C)(C)C)C(=O)C(=O)NC1CC1` [Compound 72] as the compound, how does the Ki read?
Answer: 0.1 to 0.5 µM

Question: With `CCC[C@H](NC(=O)[C@@H]1C[C@]2(CC(c3cccc(OC)c3OC)=NO2)CN1C(=O)[C@@H](NC(=O)OCc1ccccc1)C(C)(C)C)C(=O)C(=O)NC1CC1` [Compound 434] as the compound, how does the Ki read?
Answer: 0.1 to 0.5 µM

Question: Which Ki does the source give for `CCC[C@H](NC(=O)[C@@H]1C[C@@]2(CC(c3cc(F)c(F)c(F)c3)=NO2)CN1C(=O)[C@@H](NC(=O)O[C@H]1CCOC1)C(C)(C)C)C(=O)C(=O)NC1CC1` [Compound 455] here?
Answer: > 0.5 µM

Question: How did the Ki turn out when `CCC[C@H](NC(=O)[C@@H]1C[C@]2(CC(c3cccc(Cl)c3)=NO2)CN1C(=O)[C@@H](NC(=O)CC1CCCCC1)C(C)(C)C)C(=O)C(=O)NC1CC1` [Compound 294] was run?
Answer: 0.1 to 0.5 µM

Question: Which Ki does the source give for `CCC[C@H](NC(=O)[C@@H]1C[C@]2(CC(c3ccc(F)cc3)=NO2)CN1C(=O)[C@@H](NC(C)=O)C(C)(C)C)C(=O)C(=O)NC1CC1` [Compound 331] here?
Answer: > 0.5 µM

Question: For `CCC[C@H](NC(=O)[C@@H]1C[C@]2(CC(c3ccccc3)=NO2)CN1C(=O)[C@@H](NC(=O)NCc1ccccc1)C(C)(C)C)C(=O)C(=O)NC1CC1` [Compound 107], which Ki is on record?
Answer: 0.1 to 0.5 µM

Question: How did the Ki turn out when `CCC[C@H](NC(=O)[C@@H]1C[C@]2(CC(c3cccc(Cl)c3)=NO2)CN1C(=O)[C@@H](NC(=O)OCc1cccnc1C)C(C)(C)C)C(=O)C(=O)NC1CC1` [Compound 167] was run?
Answer: 0.1 to 0.5 µM

Question: How did the Ki turn out when `CCC[C@H](NC(=O)[C@@H]1C[C@]2(CC(c3ccccc3)=NO2)CN1C(=O)[C@@H](NC(=O)Nc1cccc2ccccc12)C(C)(C)C)C(=O)C(=O)NC1CC1` [Compound 288] was run?
Answer: 0.1 to 0.5 µM

Question: How did the Ki turn out when `CCC[C@H](NC(=O)[C@@H]1C[C@]2(CC(c3cccc(Cl)c3)=NO2)CN1C(=O)[C@@H](NC(=O)NCC)C(C)(C)C)C(=O)C(=O)NC1CC1` [Compound 123] was run?
Answer: < 0.1 µM

Question: `CCC[C@H](NC(=O)[C@@H]1C[C@]2(CC(c3cccc(Cl)c3)=NO2)CN1C(=O)[C@@H](NC(=O)NCC(C)C)C(C)(C)C)C(=O)C(=O)NC1CC1` [Compound 156] was tested. Which Ki did it give?
Answer: < 0.1 µM

Question: Which Ki does the source give for `CCC[C@H](NC(=O)[C@@H]1C[C@]2(CC(c3cccc(Cl)c3)=NO2)CN1C(=O)[C@@H](NC(=O)Cc1ccccc1C)C(C)(C)C)C(=O)C(=O)NC1CC1` [Compound 431] here?
Answer: 0.1 to 0.5 µM

Question: With `CCC[C@H](NC(=O)[C@@H]1C[C@]2(CC(c3ccc(F)c(C)c3)=NO2)CN1C(=O)[C@@H](NC(=O)CC1CCOCC1)C(C)(C)C)C(=O)C(=O)NC1CC1` [Compound 539] as the compound, how does the Ki read?
Answer: 0.1 to 0.5 µM

Question: For `CCC[C@H](NC(=O)[C@@H]1C[C@@]2(CC(c3ccc(C)c(F)c3)=NO2)CN1C(=O)[C@@H](NC(=O)O[C@H]1CCOC1)C(C)(C)C)C(=O)C(=O)NC1CC1` [Compound 423], which Ki is on record?
Answer: > 0.5 µM

Question: `CCC[C@H](NC(=O)[C@@H]1C[C@]2(CC(c3ccc(Cl)c(C)c3)=NO2)CN1C(=O)[C@@H](NC(=O)CC1CCCCC1)C(C)(C)C)C(=O)C(=O)NC1CC1` [Compound 436] was tested. Which Ki did it give?
Answer: 0.1 to 0.5 µM

— patent US7964624B1, “Inhibitors of serine proteases” (priority 2005, dated 2011)
